The text below walks through data of patent publication US20220204509A1, “PYRIMIDO FIVE-MEMBERED HETEROCYCLIC COMPOUND AND USE THEREOF AS MUTANT IDH2 INHIBITOR” (EPITAS BIOSCIENCES (SHANGHAI) CO., LTD., priority 2019, published 2022).

Assay [1] deals with T1, IDH2/R140Q (Homo sapiens, UniProt P48735, R140Q).
T1 sequence (P48735 40-452 R140Q): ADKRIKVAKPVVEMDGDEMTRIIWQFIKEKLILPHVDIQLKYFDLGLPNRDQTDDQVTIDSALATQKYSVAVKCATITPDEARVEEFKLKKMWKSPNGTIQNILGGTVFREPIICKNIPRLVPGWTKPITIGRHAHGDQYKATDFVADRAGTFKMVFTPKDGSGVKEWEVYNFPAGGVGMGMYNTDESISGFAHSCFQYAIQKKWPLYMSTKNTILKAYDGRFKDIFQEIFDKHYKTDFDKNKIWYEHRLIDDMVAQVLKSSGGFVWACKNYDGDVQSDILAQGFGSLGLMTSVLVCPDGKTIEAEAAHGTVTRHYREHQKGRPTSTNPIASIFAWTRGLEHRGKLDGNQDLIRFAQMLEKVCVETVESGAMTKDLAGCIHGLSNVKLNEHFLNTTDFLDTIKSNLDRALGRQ
The assay can be described thus: Determination of the inhibitory activity of the compounds on IDH2/R140Q (NADPH reduction, resazurin/lipoamide dehydrogenase detection). In kind it is biochemical. More on the design: purchased Abcam ab198153. The note with it: IDH2/R140Q inhibitory activity; pre-incubated at 25° C. for 16 hours; read-out: IC50. Here is the method: In this example, the inhibitory activity of a compound on IDH2/R140Q was determined by measuring the reduction of the cofactor NADPH. The compound was incubated with IDH2/R140Q and NADPH, and then the reaction was initiated by adding α-KG. After a certain time of reaction under linear conditions, lipoamide dehydrogenase and the corresponding substrate resazurin were added for detection. Lipoamide dehydrogenase terminated the IDH2/R140Q reaction bγ subtracting the available cofactor NADPH. It oxidized NADPH to NADP, and reduced resazurin to highly fluorescent resorufin. The production of resorufin was detected to quantify the amount of cofactor NADPH remaining after a specific reaction time.
Then 25 μL of a stop mixed solution (lipoamide dehydrogenase 36 μg/mL, resazurin 30 μM) prepared with the above reaction buffer was added to convert resazurin to resorufin to measure the remaining NADPH. After 10 minutes of incubation at 25° C., the fluorescence value was measured by Tecan […] […] The enzyme activity was measured at 10 concentrations for each compound, and multiple background holes without enzyme and full enzyme activity holes without compound were set up in the reaction. The concentration of dimethyl sulfoxide in the system was less than or equal to 2%. […] The multi-well plate in this example was purchased from Thermo Fisher Scientific, NADPH, α-KG, lipoamide dehydrogenase, and resazurin were purchased from Shenggong Bioengineering Co., Ltd., and IDH2/R140Q was purchased from Abcam (ab198153).

The target in assay [2] is T1, IDH2/R140Q. Description: Inhibition of mutant IDH2 activity at the cell level (extracellular 2-HG, U87MG overexpressing IDH2/R140Q). Particulars: U87MG overexpressing IDH2/R140Q; 2-HG in medium after 24 hours of culturing with compound; read-out: IC50. In kind it is cell-based. The method, then: 2-hydroxyglutarate dehydrogenase (2HGDH) can reduce NAD+ to NADH in the presence of 2-HG. The latter can be quantitatively detected by diaphorase and its substrate Resazurin.
The glioma cells U87MG overexpressing IDH2/R140Q mutation were cultured in 1% sodium pyruvate high-sugar MEM, 10% FBS, and placed in a CO2 incubator (37° C., 5% CO2, 95% air) for cultivation.
The cells were digested with trypsin and seeded in a 96-well plate at a density of 1×10^4 with a medium of 200 μL and cultured in a 37° C. incubator overnight. The next day, the test compound was added to a final concentration of 0.1% for DMSO. […] The protein and other components in the medium that may interfere with the results were filtered, and the follow-up method was used to detect the content of 2-HG. 50 uL CellTiter-Glo (purchased from Promega) was added to the 96-well plate with the remaining 100 μL of medium to detect cell survival;
Extracellular 2-HG detecting system:
(1) 50 μL reaction system: reaction buffer (50 mM Tris pH7.5, 100 mM NaCl, 20 mM MgCl2, 0.05% BSA), in which the final concentration of NAD+ was 40 μM, the final concentration of 2HGDH was 20 nM, and the test sample was added to 5 μL of medium; the reaction solution was mixed and centrifuged, and the reaction was carried out for 1 hour at 25° C. in the dark;
Preparation of 2-HG standard curve: a 2-HG stock solution was diluted to 20 μM with reaction buffer, and a 2-fold gradient diluting was performed for a total of 6 points. Afterwards, the above-mentioned 2-HG was measured according to the extracellular 2-HG detecting system, and a standard curve was calculated and drawn.
Calculation of extracellular 2-HG content:
The fluorescence value obtained in the extracellular 2-HG detecting system was calculated using the 2-HG standard curve to calculate the content of 2-HG in the medium, and DMSO was used as a negative control to calculate the compound's inhibition against IDH2/R140Q mutation producing 2-HG activity.

A further assay concerns the target T2, IDH2/WT (Homo sapiens, UniProt P48735).
T2 construct: made in house; host or cells: E. coli
T2 sequence (P48735 40-452): T1 sequence (P48735 40-452 R140Q) with Q101R
The assay can be described thus: Determination of the selectivity of compounds to wild-type IDH2 (IDH2/WT). In kind it is biochemical. The note with it: Inhibitory activity on IDH2/WT; pre-incubated at 25° C. for 16 hours. The method, then:
The compound was incubated with IDH2/WT and NADP, and then the reaction was initiated by adding isocitrate. After a certain time of reaction under linear conditions, lipoamide dehydrogenase and resazurin were added to detect the amount of fluorescent substances. In this experiment, NADP was reduced to NADPH. The latter reduced resazurin to highly fluorescent resorufin under the action of lipoamide dehydrogenase. The production of resorufin was detected to quantify the amount of cofactor NADPH generated after a specific reaction time, so as to calculate the compound's inhibitory effect on IDH2/WT.
Specifically, in a 96-well plate, in a total reaction volume of 50 μL, a mixture of 0.6 nM IDH2/WT, serially diluted inhibitors, and 50 μM NADP in a reaction buffer containing Tris-HCl 20 mM (pH 7.5), 150 mM NaCl, 10 mM MgCl2, 10% Glycerol, 0.03% BSA, and 2.5 mM β-mercaptoethanol, was pre-incubated at 25° C. for 16 hours. Isocitrate was added to 50 μM and the reaction was carried out at 25° C. for 30 minutes. Then 25 μL of a mixed solution (lipoamide dehydrogenase 36 μg/mL, resazurin 30 μM) prepared with the above reaction buffer was added to convert resazurin to resorufin to measure the NADPH produced. After 10 minutes of incubation at 25° C., the fluorescence value was measured by Tecan INFINITE F FLEX under Ex544/Em590. The enzyme activity was measured at 10 concentrations for each compound, and multiple background holes without enzyme and full enzyme activity holes without compound were set up in the reaction. The concentration of dimethyl sulfoxide in the system was less than or equal to 2%. The value of IC50 was obtained by the formula: Y=100/(1+10^((Log IC50−X)*HillSlope)) using XLFit5 software (IDBS Software). In the method, the multi-well plate was purchased from Thermo Fisher Scientific, NADP, α-KG, lipoamide dehydrogenase, and resazurin were purchased from Shenggong Bioengineering Co., Ltd., and IDH2/WT was obtained by purification after E. coli overexpression.

Changes are numbered by the printed parent chain.

Consider `Cc1cc2c(NC3CC3)nc(-c3ccccc3)nc2[nH]1` [Compound 23, N-cyclopropyl-6-methyl-2-phenyl-7H-pyrrolo[2,3-d]pyrimidin-4-amine], for which the half-inhibitory concentration (IC50) was 100 to 1000 nM on IDH2/R140Q [1], 100 to 1000 nM at IDH2/R140Q [2] and greater than 5000 nM against IDH2/WT.

On to `Cc1cc2c(NC(C)C)nc(-c3ccccc3F)nc2[nH]1` [Compound 25, 2-(2-fluorophenyl)-N-isopropyl-6-methyl-7H-pyrrolo[2,3-d]pyrimidin-4-amine], for which the 50% inhibitory concentration (IC50) was 100 to 1000 nM on IDH2/R140Q [1], 100 to 1000 nM at IDH2/R140Q [2] and greater than 5000 nM at IDH2/WT.

Turning to `Cc1cc2c(NC3CC3)nc(-c3ccccc3F)nc2[nH]1` [Compound 28, N-cyclopropyl-2-(2-fluorophenyl)-6-methyl-7H-pyrrolo[2,3-d]pyrimidin-4-amine], the IC50 on IDH2/R140Q [1] is 100 to 1000 nM; at IDH2/R140Q [2], less than 100 nM; on IDH2/WT, greater than 5000 nM.

For `Cc1cc2c(NC3CCCC3)nc(-c3ccccc3)nc2[nH]1` [Compound 36, N-cyclopentyl-6-methyl-2-phenyl-7H-pyrrolo[2,3-d]pyrimidin-4-amine], the half-maximal inhibitory concentration (IC50) at IDH2/R140Q [1] was less than 100 nM; on IDH2/R140Q [2], 100 to 1000 nM; at IDH2/WT, greater than 5000 nM.
